According to the NIST ThermoML archive (doi:10.1016/j.tca.2006.10.008):
Where “and” joins values, the source holds several entries; their conditions need not be identical. Equal values may be shown once.

Details: for vapor or sublimation pressure: Transpiration method; for Triple point temperature: DTA

F[B-](F)(F)F.[Cs+] [cesium tetrafluoroborate]
Crystal 1
Details | vapor or sublimation pressure
586 K | 3.63e-05 kPa
592 K | 4.17e-05 kPa
602 K | 6.62e-05 kPa
608 K | 8.43e-05 kPa
611 K | 8.34e-05 kPa
623 K | 0.0001414 kPa
627 K | 0.0001287 kPa [middle of 4 runs]
634 K | 0.0001822 kPa
648 K | 0.0002611 kPa
654 K | 0.0003472 kPa
666 K | 0.0003572 kPa
682 K | 0.0005593 kPa
692 K | 0.0007727 kPa
703 K | 0.0008954 kPa
705 K | 0.000949 kPa

Details | Triple point temperature [K]
Crystal 2 | 442

F[B-](F)(F)F.[Rb+] [rubidium tetrafluoroborate]
Crystal 1
Details | vapor or sublimation pressure
550 K | 3.93e-05 kPa
555 K | 5.32e-05 kPa
566 K | 6.47e-05 kPa
576 K | 9.73e-05 kPa
581 K | 9.94e-05 kPa
592 K | 0.0001394 kPa
602 K | 0.0001641 kPa
613 K | 0.0002173 kPa
622 K | 0.0002867 kPa and 0.000287 kPa and 0.0002854 kPa
629 K | 0.0003005 kPa
641 K | 0.0004209 kPa
655 K | 0.0005109 kPa
676 K | 0.0007892 kPa
697 K | 0.001082 kPa

Details | Triple point temperature [K]
Crystal 2 | 527

F[B-](F)(F)F.[Na+] [sodium tetrafluoroborate]
vapor or sublimation pressure
Details | Crystal 1 | Crystal 2
483 K | – | 0.0002215 kPa
493 K | – | 0.0003008 kPa
498 K | – | 0.0003479 kPa
503 K | – | 0.0003963 kPa
519 K | 0.0006401 kPa | 0.0006401 kPa
523 K | 0.0008727 kPa | –
533 K | 0.001184 kPa | –
544 K | 0.001662 kPa | –
545 K | 0.001475 kPa | –
554 K | 0.001848 kPa [middle of 5 runs] | –
566 K | 0.002561 kPa | –
575 K | 0.002638 kPa | –
576 K | 0.003027 kPa | –
580 K | 0.003513 kPa | –
586 K | 0.003838 kPa | –
602 K | 0.003513 kPa | –
612 K | 0.005891 kPa | –
622 K | 0.008782 kPa | –
663 K | 0.01582 kPa | –

Details | Triple point temperature [K]
Crystal 2 | 519
